Data reported in patent publication US11034661B2, “Substituted N′-hydroxycarbamimidoyl-1,2,5-oxadiazole compounds as indoleamine 2,3-dioxygenase IDO inhibitors” (Merck Sharp & Dohme Corp., priority 2017, dated 2021).
pIC50: −log10 of the molar value.

Columns and labels:
[1] = molecular target: IDO1 in human whole blood stimulated with LPS and IFNγ (Homo sapiens (Human), UniProt P14902); test: IDO1 Human Whole Blood Assay; type: cell-based; conditions: LPS and IFNγ 100 ng/mL, 18 h, kynurenine by LC/MS/MS
Sequence of IDO1 in human whole blood stimulated with LPS and IFNγ (P14902 whole entry): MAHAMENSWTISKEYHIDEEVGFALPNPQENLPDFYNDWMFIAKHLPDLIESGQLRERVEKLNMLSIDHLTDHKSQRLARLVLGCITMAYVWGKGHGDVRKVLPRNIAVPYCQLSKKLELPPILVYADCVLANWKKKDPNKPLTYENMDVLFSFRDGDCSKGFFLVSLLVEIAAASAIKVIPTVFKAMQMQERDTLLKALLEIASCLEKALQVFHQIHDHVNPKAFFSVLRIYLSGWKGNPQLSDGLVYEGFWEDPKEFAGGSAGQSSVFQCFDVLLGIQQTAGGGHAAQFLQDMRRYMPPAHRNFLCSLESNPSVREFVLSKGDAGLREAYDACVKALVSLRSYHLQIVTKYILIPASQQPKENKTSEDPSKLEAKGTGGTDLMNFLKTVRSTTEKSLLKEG
Method: IDO1 Human Whole Blood Assay
Compounds to be tested were serially diluted in ten 3-fold steps in DMSO starting from 10 mM. 3 μL of compound dilutions or DMSO alone were then dispensed from the dilution plate into a polypropylene 96-well assay plate containing 97 μL of RPMI using an Echo 555 acoustic liquid handler (Labcyte). LPS and IFNγ was prepared in RPMI to a 10× of final conc. (1000 ng/mL), final concentration is 100 ng/mL.
Human whole blood was drawn in sodium heparin coated tubes from healthy internal donors. Two hundred forty μL of blood was transferred to each of the wells of a v-bottom 96 well plate. Thirty μL of compound was transferred from intermediate dilution plate, and incubated for 15 min. Thirty μL from stimulants was then transferred to blood and mixed thoroughly. Plate was covered with breathable membrane and incubated at 37° C. for overnight (18 h).
On day 2 isotope labeled standard of kynurenine and tryptophan was made in water at 10× concentration and 30 μL was added to the blood at 3 μM final concentration. The assay plates were centrifuged at 300×G for 10 min with no brake to separate plasma from red blood cells. Sixty μL of plasma samples was removed without disturbing red blood cells. Plasma was diluted with RPMI in 1:1 ratio and proteins were precipitated out with two volume of Acetonitrile. The plates was centrifuged at 4000×G for 60 min. Twenty μL of supernatant was carefully transferred to a 384 well plate contain 40 μL of 0.1% formic acid in water and analyzed by LC/MS/MS.
LC/MS/MS analyses were performed using Thermo Fisher's LX4-TSQ Quantum Ultra system. This system consists of four Agilent binary high-performance liquid chromatography (HPLC) pumps and a TSQ Quantum Ultra triple quadruple MS/MS instrument. For each sample, 5 μL were injected onto an Atlantis T3 column (2.1 mm×150 mm, 3 μm particle size) from Waters. The mobile phase gradient pumped at 0.8 mL/min was used to elute the analytes from the column at 25° C. The elution started at 0% B increasing linearly to 25% B at 6.5 min, holding at 25% for 1 min, re-equilibrating to 10 min. Mobile phase A consisted of 0.1% formic acid in water. Mobile phase B consisted of 0.1% of formic acid in acetonitrile. Data was acquired in positive mode using a HESI interface. The operational parameters for the TSQ Quantum Ultra instrument were a spray voltage of 4000 V, capillary temperature of 380° C., vaporizer temperature 400° C., shealth gas 60 arbitrary units, Aux gas 20 arbitrary units, tube lens 85 and collision gas 1.2 mTorr. SRM chromatograms of kynurenine (Q 1: 209.2>Q3:94.0) and internal standard (Q1: 215.3>Q3:98.2) were collected for 90 sec. The peak area was integrated by Xcalibur Quan software. The ratios between the kynurenine generated in the reaction and 2D6-Kynurenine spiked-in internal standard were used to generate percentage inhibition and IC50 values. Compounds were titrated and IC50's were calculated by 4 parameter sigmoidal curve fitting formula.

[2] = molecular target: HIS-tagged IDO1 protein (Homo sapiens (Human), UniProt P14902); test: IDO1 Enzyme Assay; type: biochemical; conditions: recombinant IDO1 40 nM, tryptophan substrate, fluorescence readout
Sequence of HIS-tagged IDO1 protein (P14902 whole entry): as above
Method: Biological Assays IDO1 Enzyme Assay
(§1) Compounds to be tested were serially diluted in ten 3-fold steps in DMSO starting from 10 mM DMSO stocks. Compound dilutions or DMSO alone were then dispensed from the dilution plate into a Greiner black 384-well assay plate (catalog #781086) using an Echo 555 acoustic liquid handler (Labcyte).
HIS-tagged IDO1 protein was recombinantly expressed in Escherichia coli using ZYP5052 autoinduction media supplemented with 500 μM delta aminolevulinic acid for 48 hours at 16 degrees Celsius. IDO1 protein was purified using Ni^2+-affinity resin and size exclusion chromatography. Purified protein was then diluted in assay buffer (50 mM Tris pH 7.0, 1% glycerol, 20 μM methylene blue, 0.05% Tween-20, 20 mM sodium ascorbate, 100 units/mL catalase to obtain a final IDO1 concentration of 40 nM. IDO1 solution […] or buffer alone […] was dispensed to wells of the assay plate using a BioRAPTR liquid dispenser (Beckman Coulter). Assay plates containing compound and IDO1 enzyme were incubated at room temperature for 30 minutes. Afterwards, 10 μL of 400 μM tryptophan in assay buffer were added to each well of the assay plate using a BioRAPTR liquid dispenser. Plates were incubated at room temperature for 60 minutes and reactions were quenched by addition of 10 μL of 0.5 M methyl isonipecotate in dimethyl sulfoxide. Plates were sealed and incubated at 37 degrees Celsius for 4 hours or 50 degrees Celsius for 2 hours. The plates are allowed to cool and then centrifuged for 1 minute at 1000×g. The resulting fluorescence was measured in an Envision plate reader (Perkin Elmer) with a 400/25 nm excitation filter and an 510/20 nm emission filter.
Potencies were calculated by linear least squares fit to the four parameter logistic IC50 equation.

[3] = molecular target: IDO1 in Hela cells stimulated with IFNγ (Homo sapiens (Human), UniProt P14902); test: IDO1 Cellular Assay in Hela Cells Stimulated with IFNγ; type: cell-based; conditions: IFNγ 100 ng/mL, about 48 hours, fluorescence readout, read-out: IDO1 HELA Cell Assay, IC50
Sequence of IDO1 in Hela cells stimulated with IFNγ (P14902 whole entry): as above
Method: IDO1 Cellular Assay in Hela Cells Stimulated with IFNγ
Hela cells were cultured in complete Hela culture medium (90% EMEM, 10% heat-inactivated fetal bovine serum) and expanded to about 1×10^9 cells. The cells were then collected and frozen down at 10×10^6 cells/vial in 1 mL frozen medium (90% complete Hela culture medium, 10% DMSO)
as §1, with “stocks in Echo low volume plate(s).” for “stocks.”, “plate(s)” for “plate”, “into” for “into a”, “#781086, 50 nL/well)” for “#781086)”, “550” for “555”
Frozen Hela cells were thawed and transferred into Hela assay medium (99% complete Hela culture medium, 1% Pen/Strep) with 20 mL medium/vial of cells. The cells were spun down at 250 g in a table top centrifuge for 5 min and suspended in same volume of Hela assay medium. The cells were then counted and adjusted to a density of 2×10^5 cells/ml in Hela assay medium. Sterile L-tryptophan were added to the cells with final concentration of 300 uM L-tryptophan. A small aliquot (2 mL/plate) of Hela cells were set aside and were not treated with IFNγ, to serve as the Max-E control. The rest of Hela cells were added with sterile IFNγ (Cat #285-IF, R & D systems) with a final concentration of 100 ng/mL.
Hela cells with and without IFNγ were dispensed to the respective wells of 384-well assay plates containing the compounds. The plates were incubated for about 48 hours at a 37° C., 5% CO2 incubator. Afterwards, 12 μL of 0.5 M methyl isonipecotate in dimethyl sulfoxide were added into each well and the plates were sealed and incubated at 37° C. without CO2 overnight. The plates were centrifuged for 1 min at 200×g. The resulting fluorescence was measured in a Spectramax plate reader (Molecular Devices) with a 400 nm excitation filter and a 510 nm emission filter.
The fluorescence intensity of each well was corrected for the background observed in wells with non-IFNγ-treated cells and was expressed as a fraction of the intensity observed in wells of IFNγ-treated cells and DMSO only. Potencies were calculated by linear least squares fit to the four parameter logistic IC50 equation.

Compound | IDO1 human whole blood assay, IC50 [1] [nM] | pIC50 [2] | pIC50 [3]
NC(=O)NCCOc1nonc1/C(=N/O)NC1Cc2ccc(F)cc21 (stereo not drawn) [Example 11, 4-[2-(carbamoylamino)ethoxy]-N-(4-fluorobicyclo[4.2.0]octa-1,3,5-trien-7-yl)-N′-hydroxy-1,2,5-oxadiazole-3-carboximidamide] | 262.4 | 7.13 | 6.71
O=C(CO)N1CC(Oc2nonc2/C(=N/O)N[C@H]2Cc3ccc(F)cc32)C1 [Example 2, (S)—N-(4-fluorobicyclo[4.2.0]octa-1(6),2,4-trien-7-yl)-N′-hydroxy-4-((1-(2-hydroxyacetyl)azetidin-3-yl)oxy)-1,2,5-oxadiazole-3-carboximidamide] | 232.5 | 7.12 | 7.03
CCC(=O)NCCOc1nonc1/C(=N/O)N[C@H]1Cc2ccc(F)cc21 [Example 33, N-{2-[(4-{N-[(7S)-4-fluorobicyclo[4.2.0]octa-1,3,5-trien-7-yl]-N′-hydroxycarbamimidoyl}-1,2,5-oxadiazol-3-yl)oxy]ethyl}propanamide] | 503.3 | 7.40 | 7.28
CC(=O)N[C@H]1C[C@H](Oc2nonc2/C(=N/O)N[C@H]2Cc3ccc(F)cc32)C1 [Example 37, N-{trans-3-[(4-{N-[(7S)-4-fluorobicyclo[4.2.0]octa-1,3,5-trien-7-yl]-N′-hydroxycarbamimidoyl}-1,2,5-oxadiazol-3-yl)oxy]cyclobutyl}acetamide] | – | 7.08 | 7.04
CC(Oc1nonc1/C(=N/O)NC1Cc2ccc(F)cc21)C(=O)NCCO (stereo not drawn) [Example 23, 2-({4-[N-(4-fluorobicyclo[4.2.0]octa-1,3,5-trien-7-yl)-N′-hydroxycarbamimidoyl]-1,2,5-oxadiazol-3-yl}oxy)-N-(2-hydroxyethyl)propanamide] | – | 5.78 | 5.72
NC(=O)NCCCOc1nonc1/C(=N/O)N[C@H]1Cc2ccc(F)cc21 [Example 18, 4-[3-(carbamoylamino)propoxy]-N-[(7S)-4-fluorobicyclo[4.2.0]octa-1,3,5-trien-7-yl]-N′-hydroxy-1,2,5-oxadiazole-3-carboximidamide] | – | 7.13 | 6.52
CC(C)(O)CNC(=O)COc1nonc1/C(=N/O)NC1Cc2ccc(F)cc21 (stereo not drawn) [Example 14, 2-({4-[N-(4-fluorobicyclo[4.2.0]octa-1,3,5-trien-7-yl)-N′-hydroxycarbamimidoyl]-1,2,5-oxadiazol-3-yl}oxy)-N-(2-hydroxy-2-methylpropyl)acetamide] | – | 6.01 | 6.11
O=C(COc1nonc1/C(=N/O)NC1Cc2ccc(F)cc21)NCC(O)CO (stereo not drawn) [Example 12, N-(2,3-dihydroxypropyl)-2-({4-[N-(4-fluorobicyclo[4.2.0]octa-1,3,5-trien-7-yl)-N′-hydroxycarbamimidoyl]-1,2,5-oxadiazol-3-yl}oxy)acetamide] | – | 6.15 | 6.04
CC(C)(Oc1nonc1/C(=N/O)NC1Cc2ccc(F)cc21)C(=O)NCCO (stereo not drawn) [Example 19, 2-({4-[N-(4-fluorobicyclo[4.2.0]octa-1,3,5-trien-7-yl)-N′-hydroxycarbamimidoyl]-1,2,5-oxadiazol-3-yl}oxy)-N-(2-hydroxyethyl)-2-methylpropanamide] | – | 5.11 | 5.55

Now from value to molecule:

IDO1 human whole blood assay, IC50 [1] [nM] | pIC50 [2] | pIC50 [3] | Compound
1440 | 7.44 | 7.34 | NS(=O)(=O)N[C@H]1C[C@@H](Oc2nonc2/C(=N/O)N[C@H]2Cc3ccc(F)cc32)C1 [Example 43, N-[(7S)-4-fluorobicyclo[4.2.0]octa-1,3,5-trien-7-yl]-N′-hydroxy-4-{[cis-3-(sulfamoylamino)cyclobutyl]oxy}-1,2,5-oxadiazole-3-carboximidamide]
386.1 | 5.83 | 5.87 | O=C(CO)N[C@H]1C[C@H](Oc2nonc2/C(=N/O)N[C@H]2Cc3ccc(F)cc32)C1 [Example 56, N-{trans-3-[(4-{N-[(7S)-4-fluorobicyclo[4.2.0]octa-1,3,5-trien-7-yl]-N′-hydroxycarbamimidoyl}-1,2,5-oxadiazol-3-yl)oxy]cyclobutyl}-2-hydroxyacetamide]
– | 6.67 | 6.48 | CC(=O)NC[C@H](O)COc1nonc1/C(=N/O)N[C@H]1Cc2ccc(F)cc21 [Example 53, N-{(2S)-3-[(4-{N-[(7S)-4-fluorobicyclo[4.2.0]octa-1,3,5-trien-7-yl]-N′-hydroxycarbamimidoyl}-1,2,5-oxadiazol-3-yl)oxy]-2-hydroxypropyl}acetamide]
– | 5.61 | 5.78 | C[C@@H](CNC(=O)CO)Oc1nonc1/C(=N/O)N[C@H]1Cc2ccc(F)cc21 [Example 46, N-{(2S)-2-[(4-{N-[(7S)-4-fluorobicyclo[4.2.0]octa-1,3,5-trien-7-yl]-N′-hydroxycarbamimidoyl}-1,2,5-oxadiazol-3-yl)oxy]propyl}-2-hydroxyacetamide]
– | 7.43 | 7.18 | NS(=O)(=O)NCCCOc1nonc1/C(=N/O)N[C@H]1Cc2ccc(F)cc21 [Example 64, (S,Z)-N-(4-fluorobicyclo[4.2.0]octa-1(6),2,4-trien-7-yl)-N′-hydroxy-4-(3-(sulfamoylamino)propoxy)-1,2,5-oxadiazole-3-carboximidamide]
